What was measured:
Format in all cases: in vivo
[1] = tested on: foxtail, giant (Setaria faberii); experiment: Test A preemergence, giant foxtail; settings: 0 to 100 scale
In short: (§1)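 Greenhouse evaluation: treated and untreated pots were held about 10 d, then injury was rated visually from 0 (no effect) to 100 (complete control). Application was preemergence to soil or postemergence to seedlings 2–10 cm tall, using a non-phytotoxic solvent formulation with surfactant.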

[2] = tested on: pigweed (Amaranthus retroflexus); experiment: Test A preemergence, pigweed; settings: 0 to 100 scale
In short: as §1

kochia (Kochia scoparia) [3] = experiment: Test A postemergence, kochia; settings: 0 to 100 scale
In short: as §1

kochia (Kochia scoparia) [4] = experiment: Test A preemergence, kochia; settings: 0 to 100 scale
In short: as §1

[5] = tested on: sedge, umbrella (small-flower umbrella sedge, Cyperus difformis); experiment: Test B flooded paddy test, umbrella sedge; settings: Flood, 250 g ai/ha, applied to paddy water, 2-leaf stage, visual evaluation after 13 to 15 d
In short: (§2)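 Visual injury scores run from 0 (no effect) to 100 (complete control), assigned by comparison with controls 13 to 15 d after treatment. Treatment went into floodwater standing 3 cm over the soil of pots holding 2-leaf plants.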

[6] = tested on: barnyardgrass (Echinochloa crus-galli); experiment: Test A postemergence, barnyardgrass; settings: 0 to 100 scale
In short: as §1

rice (Oryza sativa) = experiment: Test B flooded paddy test, rice; settings: Flood, 250 g ai/ha, applied to paddy water, 2-leaf stage, visual evaluation after 13 to 15 d
In short: as §2

[7] = tested on: ragweed (common ragweed, Ambrosia elatior); experiment: Test A postemergence, ragweed; settings: 0 to 100 scale
In short: as §1

[8] = tested on: galium (catchweed bedstraw, Galium aparine); experiment: Test A postemergence, galium; settings: 0 to 100 scale
In short: as §1

[9] = tested on: ducksalad (Heteranthera limosa); experiment: Test B flooded paddy test, ducksalad; settings: Flood, 250 g ai/ha, applied to paddy water, 2-leaf stage, visual evaluation after 13 to 15 d
In short: as §2

[10] = tested on: wheat (Triticum aestivum); experiment: Test A postemergence, wheat; settings: 0 to 100 scale
In short: as §1

[11] = tested on: ragweed (common ragweed, Ambrosia elatior); experiment: Test A preemergence, ragweed; settings: 0 to 100 scale
In short: as §1

corn (Zea mays) = experiment: Test A postemergence, corn; settings: 0 to 100 scale
In short: as §1

[12] = tested on: barnyardgrass (Echinochloa crus-galli); experiment: Test B flooded paddy test, barnyardgrass; settings: Flood, 250 g ai/ha, applied to paddy water, 2-leaf stage, visual evaluation after 13 to 15 d
In short: as §2

[13] = tested on: barnyardgrass (Echinochloa crus-galli); experiment: Test A preemergence, barnyardgrass; settings: 0 to 100 scale
In short: as §1

[14] = tested on: pigweed (Amaranthus retroflexus); experiment: Test A postemergence, pigweed; settings: 0 to 100 scale
In short: as §1

[15] = tested on: foxtail, giant (Setaria faberii); experiment: Test A postemergence, giant foxtail; settings: 0 to 100 scale
In short: as §1

[16] = tested on: blackgrass (Alopecurus myosuroides); experiment: Test A postemergence, blackgrass; settings: 0 to 100 scale
In short: as §1

[17] = tested on: ryegrass, Italian (Lolium multiflorum); experiment: Test A postemergence, Italian ryegrass; settings: 0 to 100 scale
In short: as §1

[18] = tested on: ryegrass, Italian (Lolium multiflorum); experiment: Test A preemergence, Italian ryegrass; settings: 0 to 100 scale
In short: as §1

## C[C@H](Nc1ncc(C(F)(F)F)c(N)n1)c1cc2ccccc2s1 [Compound 5]
[1]; 125 g ai/ha
  Plant response rating, Foxtail, Giant: 0
[1]; 500 g ai/ha
  Plant response rating, Foxtail, Giant: 10
[2]; 125 g ai/ha
  Plant response rating, Pigweed: 0
[2]; 500 g ai/ha
  Plant response rating, Pigweed: 50
Kochia (Kochia scoparia) [3]; 125 g ai/ha
  Plant response rating, Kochia: 0
Kochia (Kochia scoparia) [3]; 500 g ai/ha
  Plant response rating, Kochia: 20
Kochia (Kochia scoparia) [4]; 125 g ai/ha
  Plant response rating, Kochia: 0
Kochia (Kochia scoparia) [4]; 500 g ai/ha
  Plant response rating, Kochia: 0
[5]
  Plant response rating, Sedge, Umbrella (0 to 100 scale, 0 is no effect, 100 is complete control): 0
[6]; 125 g ai/ha
  Plant response rating, Barnyardgrass: 0
[6]; 500 g ai/ha
  Plant response rating, Barnyardgrass: 0
Rice (Oryza sativa)
  Plant response rating, Rice (0 to 100 scale, 0 is no effect, 100 is complete control): 0
[7]; 125 g ai/ha
  Plant response rating, Ragweed: 0
[7]; 500 g ai/ha
  Plant response rating, Ragweed: 10
[8]; 125 g ai/ha
  Plant response rating, Galium: 0
[8]; 500 g ai/ha
  Plant response rating, Galium: 40
[9]
  Plant response rating, Ducksalad (0 to 100 scale, 0 is no effect, 100 is complete control): 0
[10]; 125 g ai/ha
  Plant response rating, Wheat: 0
[10]; 500 g ai/ha
  Plant response rating, Wheat: 0
[11]; 125 g ai/ha
  Plant response rating, Ragweed: 0
[11]; 500 g ai/ha
  Plant response rating, Ragweed: 0
Corn (Zea mays); 125 g ai/ha
  Plant response rating, Corn: 10
Corn (Zea mays); 500 g ai/ha
  Plant response rating, Corn: 0
[12]
  Plant response rating, Barnyardgrass (0 to 100 scale, 0 is no effect, 100 is complete control): 0
[13]; 125 g ai/ha
  Plant response rating, Barnyardgrass: 0
[13]; 500 g ai/ha
  Plant response rating, Barnyardgrass: 0
[14]; 125 g ai/ha
  Plant response rating, Pigweed: 20
[14]; 500 g ai/ha
  Plant response rating, Pigweed: 90
[15]; 125 g ai/ha
  Plant response rating, Foxtail, Giant: 0
[15]; 500 g ai/ha
  Plant response rating, Foxtail, Giant: 0
[16]; 125 g ai/ha
  Plant response rating, Blackgrass: 0
[16]; 500 g ai/ha
  Plant response rating, Blackgrass: 0
[17]; 125 g ai/ha
  Plant response rating, Ryegrass, Italian: 0
[17]; 500 g ai/ha
  Plant response rating, Ryegrass, Italian: 0
[18]; 125 g ai/ha
  Plant response rating, Ryegrass, Italian: 20
[18]; 500 g ai/ha
  Plant response rating, Ryegrass, Italian: 20
